{
  "source": "paper PMC5516229",
  "about": "(2017)",
  "key": {"[1]": {"tested_on": "G1 (DNA, G4) AGGGTTAGGGTTAGGGTTAGGG", "test": "UV/Vis titration", "conditions": "10 mM Tris-HCl pH 7.04, 20 μM complex, apparent, per base pair"}, "[2]": {"tested_on": "G2T1 (DNA, G4) AGGGTTAGGGTTAGGGTTAGGGTTAGGGTTAGGGTTAGGGTTAGGG", "test": "UV/Vis titration", "conditions": "10 mM Tris-HCl pH 7.04, 20 μM complex, apparent, per base pair"}, "[3]": {"tested_on": "G2T1 (DNA, G4) AGGGTTAGGGTTAGGGTTAGGGTTAGGGTTAGGGTTAGGGTTAGGG", "test": "CD melting, 295 nm", "conditions": "100 mM NaCl, 10 mM Tris-HCl pH 7.04, 2.5 μM DNA"}, "[4]": {"tested_on": "G2T2 (DNA, G4) AGGGTTAGGGTTAGGGTTAGGGTTATTAGGGTTAGGGTTAGGGTTAGGG", "test": "CD melting, 295 nm", "conditions": "100 mM NaCl, 10 mM Tris-HCl pH 7.04"}, "[5]": {"tested_on": "G1 (DNA, G4) AGGGTTAGGGTTAGGGTTAGGG", "test": "native gel electrophoresis", "conditions": "100 mM NaCl; 10 mM Tris-HCl pH 7.04; 16 μM DNA, 32 μM complex"}, "[6]": {"tested_on": "G2T1 (DNA, G4) AGGGTTAGGGTTAGGGTTAGGGTTAGGGTTAGGGTTAGGGTTAGGG", "test": "native gel electrophoresis", "conditions": "100 mM NaCl, 10 mM Tris-HCl pH 7.04, 8 μM DNA"}, "[7]": {"tested_on": "G1 (DNA, G4) AGGGTTAGGGTTAGGGTTAGGG", "test": "CD melting, 295 nm", "conditions": "100 mM NaCl, 10 mM Tris-HCl pH 7.04"}, "[8]": {"tested_on": "G2T6 (DNA, G4) AGGGTTAGGGTTAGGGTTAGGGTTATTATTATTATTATTAGGGTTAGGGTTAGGGTTAGGG", "test": "CD melting, 295 nm", "conditions": "100 mM NaCl, 10 mM Tris-HCl pH 7.04"}, "[9]": {"tested_on": "G2T4 (DNA, G4) AGGGTTAGGGTTAGGGTTAGGGTTATTATTATTAGGGTTAGGGTTAGGGTTAGGG", "test": "CD melting, 295 nm", "conditions": "100 mM NaCl, 10 mM Tris-HCl pH 7.04"}, "[10]": {"tested_on": "Ap7 (DNA, G4, 2-aminopurine at 7) AGGGTTAGGGTTAGGGTTAGGGTTAGGGTTAGGGTTAGGGTTAGGG", "test": "2-aminopurine fluorescence quenching", "conditions": "100 mM NaCl; 10 mM Tris-HCl pH 7.04, 25 °C; 5 μM DNA"}, "[11]": {"tested_on": "Ap37 (DNA, G4, 2-aminopurine at 37) AGGGTTAGGGTTAGGGTTAGGGTTAGGGTTAGGGTTAGGGTTAGGG", "test": "2-aminopurine fluorescence quenching", "conditions": "100 mM NaCl; 10 mM Tris-HCl pH 7.04, 25 °C; 5 μM DNA"}, "[12]": {"tested_on": "Ap7+Ap31 (DNA, G4, 2-aminopurine at 7 and 31) AGGGTTAGGGTTAGGGTTAGGGTTAGGGTTAGGGTTAGGGTTAGGG", "test": "2-aminopurine fluorescence quenching", "conditions": "100 mM NaCl; 10 mM Tris-HCl pH 7.04, 25 °C; 5 μM DNA"}, "[13]": {"tested_on": "Ap31 (DNA, G4, 2-aminopurine at 31) AGGGTTAGGGTTAGGGTTAGGGTTAGGGTTAGGGTTAGGGTTAGGG", "test": "2-aminopurine fluorescence quenching and Job's plot", "conditions": "100 mM NaCl; 10 mM Tris-HCl pH 7.04, 25 °C; Job's plot at 3 μM total"}, "[14]": {"tested_on": "Ap13 (DNA, G4, 2-aminopurine at 13) AGGGTTAGGGTTAGGGTTAGGGTTAGGGTTAGGGTTAGGGTTAGGG", "test": "2-aminopurine fluorescence quenching", "conditions": "100 mM NaCl; 10 mM Tris-HCl pH 7.04, 25 °C; 5 μM DNA"}, "[15]": {"tested_on": "Ap13+Ap37 (DNA, G4, 2-aminopurine at 13 and 37) AGGGTTAGGGTTAGGGTTAGGGTTAGGGTTAGGGTTAGGGTTAGGG", "test": "2-aminopurine fluorescence quenching", "conditions": "100 mM NaCl; 10 mM Tris-HCl pH 7.04, 25 °C; 5 μM DNA"}, "[16]": {"conditions": "2:1 complex per G-quadruplex unit (4:1 per strand)"}},
  "data": [
    {"smiles": "[Ni+2].[Ni+2].[O-]c1cc(OCCN2CCCCC2)ccc1C=Nc1ccc(OCCOCCOc2ccc(N=Cc3ccc(OCCN4CCCCC4)cc3[O-])c(N=Cc3ccc(OCCN4CCCCC4)cc3[O-])c2)cc1N=Cc1ccc(OCCN2CCCCC2)cc1[O-]", "values": [
      {"measurement": "Ka", "setting": "[1]; 100 mM KCl, 310 nm", "result": "2.39±0.35×10^6 M^-1"},
      {"measurement": "Ka", "setting": "[1]; 100 mM NaCl, 370 nm", "result": "1.27±0.24×10^6 M^−1"},
      {"measurement": "Ka", "setting": "[2]; 100 mM KCl, 310 nm", "result": "1.19±0.16×10^6 M^-1"},
      {"measurement": "Ka", "setting": "[2]; 100 mM NaCl, 310 nm", "result": "1.08±0.24×10^6 M^−1"},
      {"measurement": "Δ T m", "setting": "[3]; 5 μM complex (2:1)", "result": 7.7, "unit": "°C"}
    ]},
    {"smiles": "[Ni+2].[Ni+2].[O-]c1cc(OCCN2CCCCC2)ccc1C=Nc1ccc(OCCOCCOCCOc2ccc(N=Cc3ccc(OCCN4CCCCC4)cc3[O-])c(N=Cc3ccc(OCCN4CCCCC4)cc3[O-])c2)cc1N=Cc1ccc(OCCN2CCCCC2)cc1[O-]", "values": [
      {"measurement": "Ka", "setting": "[1]; 100 mM KCl, 310 nm", "result": "3.53±0.33×10^6 M^-1"},
      {"measurement": "Ka", "setting": "[1]; 100 mM NaCl, 310 nm", "result": "8.30±0.75×10^5 M^−1"},
      {"measurement": "Ka", "setting": "[2]; 100 mM KCl, 310 nm", "result": "2.52±0.24×10^6 M^-1"},
      {"measurement": "Ka", "setting": "[2]; 100 mM NaCl, 310 nm", "result": "2.06±0.40×10^6 M^−1"},
      {"measurement": "Δ T m", "setting": "[3]; 5 μM complex (2:1)", "result": 8.4, "unit": "°C"}
    ]},
    {"smiles": "[Ni+2].[O-]c1cc(OCCN2CCCCC2)ccc1C=Nc1ccccc1N=Cc1ccc(OCCN2CCCCC2)cc1[O-]", "values": [
      {"measurement": "Δ T m", "setting": "[4]; [16]", "result": 25.1, "unit": "°C"},
      {"measurement": "binding", "setting": "[5]", "result": "yes"},
      {"measurement": "Ka", "setting": "[1]; 100 mM KCl, 370 nm", "result": "1.15±0.18×10^7 M^-1"},
      {"measurement": "Ka", "setting": "[1]; 100 mM NaCl, 370 nm", "result": "4.62±0.64×10^6 M^−1"},
      {"measurement": "binding", "setting": "[6]; 32 μM complex", "result": "yes"},
      {"measurement": "Δ T m", "setting": "[7]; complex:DNA 2:1", "result": 13.4, "unit": "°C"},
      {"measurement": "Ka", "setting": "[2]; 100 mM KCl, 310 nm", "result": "1.50±0.22×10^7 M^-1"},
      {"measurement": "Ka", "setting": "[2]; 100 mM NaCl, 310 nm", "result": "2.34±0.32×10^7 M^−1"},
      {"measurement": "Δ T m", "setting": "[8]; [16]", "result": 23.5, "unit": "°C"},
      {"measurement": "Δ T m", "setting": "[3]; 10 μM complex (4:1)", "result": 20.8, "unit": "°C"},
      {"measurement": "Δ T m", "setting": "[9]; [16]", "result": 25.5, "unit": "°C"}
    ]},
    {"smiles": "[Ni+2].[Ni+2].[O-]c1cc(OCCN2CCCCC2)ccc1C=Nc1ccc(OCCOCCOCCOCCOc2ccc(N=Cc3ccc(OCCN4CCCCC4)cc3[O-])c(N=Cc3ccc(OCCN4CCCCC4)cc3[O-])c2)cc1N=Cc1ccc(OCCN2CCCCC2)cc1[O-]", "values": [
      {"measurement": "Δ T m", "setting": "[4]; complex:DNA 2:1", "result": 11.9, "unit": "°C"},
      {"measurement": "Ka", "setting": "[1]; 100 mM KCl, 370 nm", "result": "2.19±0.32×10^6 M^-1"},
      {"measurement": "Ka", "setting": "[1]; 100 mM NaCl, 370 nm", "result": "1.05±0.20×10^6 M^−1"},
      {"measurement": "binding", "setting": "[6]; 16 μM complex", "result": "yes"},
      {"measurement": "Δ T m", "setting": "[7]; complex:DNA 1:1", "result": 2.0, "unit": "°C"},
      {"measurement": "binding", "setting": "[10]", "result": "yes"},
      {"measurement": "binding", "setting": "[11]", "result": "yes"},
      {"measurement": "Ka", "setting": "[2]; 100 mM KCl, 370 nm", "result": "1.37±0.25×10^7 M^-1"},
      {"measurement": "Ka", "setting": "[2]; 100 mM NaCl, 370 nm", "result": "3.15±0.42×10^7 M^−1"},
      {"measurement": "binding", "setting": "[12]", "result": "yes"},
      {"measurement": "binding", "setting": "[13]", "result": "yes"},
      {"measurement": "binding", "setting": "[14]", "result": "yes"},
      {"measurement": "Δ T m", "setting": "[8]; complex:DNA 2:1", "result": 6.3, "unit": "°C"},
      {"measurement": "binding", "setting": "[15]", "result": "yes"},
      {"measurement": "Δ T m", "setting": "[3]; 5 μM complex (2:1)", "result": 14.1, "unit": "°C"},
      {"measurement": "Δ T m", "setting": "[9]; complex:DNA 2:1", "result": 8.1, "unit": "°C"}
    ]}
  ]
}
